Test results as given in patent publication US10760110B2, “Antibiotic testing and screening system” (priority 2017, dated 2020).
Values after ≈ are worked out from the molar mass of the structure shown. Like-named read-outs stand apart in the source and are kept apart here.

Experiments:
Conditions in all cases: Klebsiella pneumoniae
[1] = test system: K. pneumoniae NVT1001 ΔramRΔompK35/36 mutant and its revertants; experiment: Etest MIC, ΔramRΔompK35/36 mutant and its revertants (Table 7); format: cell-based
[2] = test system: K. pneumoniae NVT1001 and its ΔompK35/36 and/or ΔramR mutants; experiment: Etest MIC, OmpK35/36 loss and AcrAB-TolC overexpression (ΔramR) strains (Table 6); format: cell-based, Klebsiella pneumoniae
In short: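 First, Etest determined each antibiotic's MIC, and intermediate results were adjusted upward to the next doubling dilution. Next, ceftazidime and cefotaxime were titrated in broth according to CLSI recommendations. Finally, results were interpreted with CLSI 2017 breakpoints, substituting CLSI 2015 for cephalothin and EUCAST 2017 for moxifloxacin.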

[3] = test system: K. pneumoniae NVT1001 strains with carbapenemase plasmids; experiment: Etest MIC of β-lactams, OmpK35/36 loss, ΔramR and/or carbapenemase (Table 9); format: cell-based, Klebsiella pneumoniae
Protocol: DNA fragments of the resistance genes along with their flanking regions were amplified from clinical plasmids via PCR with specific primer pairs. The resulting PCR fragments were digested and then cloned into the plasmid pACYC177 or pACYC184. The resulting plasmids were then transformed into K. pneumoniae strain NVT1001 via electroporation. The recombinant bacteria were plated onto LB agar plates containing kanamycin (50 mg/L) or chloramphenicol (50 mg/L), and the presence of the cloned gene was confirmed via PCR and DNA sequencing.
The MICs of antibiotics were determined using the Etest (Biodisk AB, Sweden) according to the manufacturer's instructions. The MICs from the Etest, which fall between standard two-fold dilutions, were rounded up to the next highest two-fold value. The MICs of ceftazidime and cefotaxime against K. pneumoniae NVT1001 harbouring the pACYC177 plasmid with blaOXA-48 were further determined using a broth microdilution test according to the recommendations of the CLSI,^25 and the results were interpreted according to the breakpoints established by the CLSI in 2017.^25 Meanwhile, due to the lack of CLSI breakpoints in 2016 and 2017, the results for cephalothin were interpreted according to the breakpoints established by the CLSI in 2015,^26 and the results for moxifloxacin were interpreted according to the breakpoints established by the EUCAST in 2017.^27

In the case of `C[C@@H](O)[C@H]1C(=O)N2C(C(=O)O)=C(S[C@@H]3CN[C@H](CNS(N)(=O)=O)C3)[C@H](C)[C@H]12` [Doripenem], the MIC ([1]; ΔramRΔompK35/36::ompK35/36 revertant) is reported as 0.06 µg/mL, the MIC ([1]; ΔramRΔompK35/36::ompK35 revertant) is reported as 0.25 µg/mL and the MIC ([1]; ΔramRΔompK35/36::ompK36 revertant) is reported as 0.06 µg/mL. For the same compound, the MIC ([1]; ΔramRΔompK35/36::ramR revertant) was 0.25 µg/mL, the MIC ([1]; ΔramRΔompK35/36::ramR::ompK35/36 revertant) was 0.06 µg/mL and the MIC ([1]; ΔramRΔompK35/36::ramR::ompK35 revertant) was 0.125 µg/mL. It also gave an MIC ([1]; ΔramRΔompK35/36::ramR::ompK36 revertant) of 0.125 µg/mL, an MIC ([1]; ΔramRΔompK35/36 mutant) of 0.5 µg/mL and an MIC ([2]; WT, NVT1001, read-out: MIC) of 0.06 µg/mL (≈ 0.143 µM). The MIC ([2]; Δ35, ΔompK35 mutant) was 0.06 µg/mL (≈ 0.143 µM), the MIC ([2]; Δ35/36, ΔompK35/36 mutant) was 0.125 µg/mL (≈ 0.297 µM) and the MIC ([2]; Δ36, ΔompK36 mutant) was 0.06 µg/mL (≈ 0.143 µM). It also gave an MIC ([2]; ΔramR mutant) of 0.03 µg/mL (≈ 0.0713 µM), an MIC ([2]; ΔramRΔ35, ΔramRΔompK35 mutant) of 0.03 µg/mL (≈ 0.0713 µM) and an MIC ([2]; ΔramRΔ35/36, ΔramRΔompK35/36 mutant) of 0.5 µg/mL (≈ 1.19 µM). For the same compound, the MIC ([2]; ΔramRΔ36, ΔramRΔompK36 mutant) was 0.25 µg/mL (≈ 0.595 µM), the MIC ([3]; IMP-8 on pACYC177, WT (NVT1001), read-out: MIC) was 1 µg/mL and the MIC ([3]; IMP-8 on pACYC177, Δ35 (ΔompK35 mutant)) was 2 µg/mL. It also gave an MIC ([3]; IMP-8 on pACYC177, Δ35/36 (ΔompK35/36 mutant)) of over 32 µg/mL, an MIC ([3]; IMP-8 on pACYC177, Δ36 (ΔompK36 mutant)) of 2 µg/mL and an MIC ([3]; IMP-8 on pACYC177, ΔramR mutant) of 1 µg/mL. For the same compound, the MIC ([3]; IMP-8 on pACYC177, ΔramRΔ35 (ΔramRΔompK35 mutant)) was 2 µg/mL, the MIC ([3]; IMP-8 on pACYC177, ΔramRΔ35/36 (ΔramRΔompK35/36 mutant)) was 32 µg/mL and the MIC ([3]; IMP-8 on pACYC177, ΔramRΔ36 (ΔramRΔompK36 mutant)) was 32 µg/mL. The MIC ([3]; KPC-2 on pACYC177, WT (NVT1001), read-out: MIC) was 16 µg/mL, the MIC ([3]; KPC-2 on pACYC177, Δ35 (ΔompK35 mutant)) was 32 µg/mL and the MIC ([3]; KPC-2 on pACYC177, Δ35/36 (ΔompK35/36 mutant)) was over 32 µg/mL. For the same compound, the MIC ([3]; KPC-2 on pACYC177, Δ36 (ΔompK36 mutant)) was over 32 µg/mL, the MIC ([3]; KPC-2 on pACYC177, ΔramR mutant) was 16 µg/mL and the MIC ([3]; KPC-2 on pACYC177, ΔramRΔ35 (ΔramRΔompK35 mutant)) was 32 µg/mL. For the same compound, the MIC ([3]; KPC-2 on pACYC177, ΔramRΔ35/36 (ΔramRΔompK35/36 mutant)) was over 32 µg/mL, the MIC ([3]; KPC-2 on pACYC177, ΔramRΔ36 (ΔramRΔompK36 mutant)) was over 32 µg/mL and the MIC ([3]; KPC-3 on pACYC177, WT (NVT1001), read-out: MIC) was 8 µg/mL. It also gave an MIC ([3]; KPC-3 on pACYC177, Δ35 (ΔompK35 mutant)) of 32 µg/mL, an MIC ([3]; KPC-3 on pACYC177, Δ35/36 (ΔompK35/36 mutant)) of over 32 µg/mL and an MIC ([3]; KPC-3 on pACYC177, Δ36 (ΔompK36 mutant)) of over 32 µg/mL. For the same compound, the MIC ([3]; KPC-3 on pACYC177, ΔramR mutant) was 16 µg/mL, the MIC ([3]; KPC-3 on pACYC177, ΔramRΔ35 (ΔramRΔompK35 mutant)) was 32 µg/mL and the MIC ([3]; KPC-3 on pACYC177, ΔramRΔ35/36 (ΔramRΔompK35/36 mutant)) was over 32 µg/mL. For the same compound, the MIC ([3]; KPC-3 on pACYC177, ΔramRΔ36 (ΔramRΔompK36 mutant)) was over 32 µg/mL, the MIC ([3]; NDM-1 on pACYC177, WT (NVT1001), read-out: MIC) was 16 µg/mL and the MIC ([3]; NDM-1 on pACYC177, Δ35 (ΔompK35 mutant)) was 32 µg/mL. For the same compound, the MIC ([3]; NDM-1 on pACYC177, Δ35/36 (ΔompK35/36 mutant)) was over 32 µg/mL, the MIC ([3]; NDM-1 on pACYC177, Δ36 (ΔompK36 mutant)) was over 32 µg/mL and the MIC ([3]; NDM-1 on pACYC177, ΔramR mutant) was 32 µg/mL. For the same compound, the MIC ([3]; NDM-1 on pACYC177, ΔramRΔ35 (ΔramRΔompK35 mutant)) was 32 µg/mL, the MIC ([3]; NDM-1 on pACYC177, ΔramRΔ35/36 (ΔramRΔompK35/36 mutant)) was over 32 µg/mL and the MIC ([3]; NDM-1 on pACYC177, ΔramRΔ36 (ΔramRΔompK36 mutant)) was over 32 µg/mL. It also gave an MIC ([3]; OXA-48 on pACYC177, WT (NVT1001), read-out: MIC) of 2 µg/mL, an MIC ([3]; OXA-48 on pACYC177, Δ35 (ΔompK35 mutant)) of 2 µg/mL and an MIC ([3]; OXA-48 on pACYC177, Δ35/36 (ΔompK35/36 mutant)) of over 32 µg/mL. It also gave an MIC ([3]; OXA-48 on pACYC177, Δ36 (ΔompK36 mutant)) of 8 µg/mL, an MIC ([3]; OXA-48 on pACYC177, ΔramR mutant) of 2 µg/mL and an MIC ([3]; OXA-48 on pACYC177, ΔramRΔ35 (ΔramRΔompK35 mutant)) of 1 µg/mL. The MIC ([3]; OXA-48 on pACYC177, ΔramRΔ35/36 (ΔramRΔompK35/36 mutant)) was over 32 µg/mL, the MIC ([3]; OXA-48 on pACYC177, ΔramRΔ36 (ΔramRΔompK36 mutant)) was over 32 µg/mL and the MIC ([3]; VIM-1 on pACYC177, WT (NVT1001), read-out: MIC) was 16 µg/mL. For the same compound, the MIC ([3]; VIM-1 on pACYC177, Δ35 (ΔompK35 mutant)) was 32 µg/mL, the MIC ([3]; VIM-1 on pACYC177, Δ35/36 (ΔompK35/36 mutant)) was over 32 µg/mL and the MIC ([3]; VIM-1 on pACYC177, Δ36 (ΔompK36 mutant)) was over 32 µg/mL. It also gave an MIC ([3]; VIM-1 on pACYC177, ΔramR mutant) of 32 µg/mL, an MIC ([3]; VIM-1 on pACYC177, ΔramRΔ35 (ΔramRΔompK35 mutant)) of 32 µg/mL and an MIC ([3]; VIM-1 on pACYC177, ΔramRΔ35/36 (ΔramRΔompK35/36 mutant)) of over 32 µg/mL. The MIC ([3]; VIM-1 on pACYC177, ΔramRΔ36 (ΔramRΔompK36 mutant)) was over 32 µg/mL, the MIC ([3]; no supplemental plasmid, WT (NVT1001), read-out: MIC) was 0.06 µg/mL and the MIC ([3]; no supplemental plasmid, Δ35 (ΔompK35 mutant)) was 0.06 µg/mL. The MIC ([3]; no supplemental plasmid, Δ35/36 (ΔompK35/36 mutant)) was 0.125 µg/mL, the MIC ([3]; no supplemental plasmid, Δ36 (ΔompK36 mutant)) was 0.06 µg/mL and the MIC ([3]; no supplemental plasmid, ΔramR mutant) was 0.03 µg/mL. It also gave an MIC ([3]; no supplemental plasmid, ΔramRΔ35 (ΔramRΔompK35 mutant)) of 0.03 µg/mL, an MIC ([3]; no supplemental plasmid, ΔramRΔ35/36 (ΔramRΔompK35/36 mutant)) of 0.5 µg/mL and an MIC ([3]; no supplemental plasmid, ΔramRΔ36 (ΔramRΔompK36 mutant)) of 0.25 µg/mL.
